PMC11107383, “Integrating Reinforcement Learning and Monte Carlo Tree Search for enhanced neoantigen vaccine design” (Briefings in Bioinformatics, 2024)
pIC50: −log10 of the molar value. Entries after “also recorded” stand apart in the source; their conditions may differ. Ends that are not written are not given here.

Key:
HLA-A^*11:01 [1] = biological target: T1, HLA-A^*11:01 (Homo sapiens, UniProt P04439, A114D/D185E/E176A/F33Y/L180Q/S129P/T187R); experiment: Peptide competitive binding assay (FITC-labeled reference peptide KVFPKALINK, flow cytometry) in HMy2.CIR cells expressing HLA-A^*11:01; details: 24 h, 4°C; for shift in the fluorescence (flow cytometry): FITC-labeled reference peptide displaced; for 5 μM Inhibition (%): competitor 5 μM
HLA-A^*11:01 [2] = biological target: T1, HLA-A^*11:01; details: in vitro peptide-binding assay; cited from earlier work
Description: (§1) A peptide sequence, ELQRREVYK, originating from the E6 oncoprotein of HPV type 52, has been recognized as an HLA-A^*11:01-restricted peptide through an in vitro peptide-binding assay. […] Considering the high prevalence of HLA-A^*11:01 allele (21.143%) in the Chinese pop ...

T-cell responses = details: IFN-γ ELISPOT; HLA-A^*11:01 pair; cited from earlier work
Description: as §1

[3] = FITC-labeled reference peptide KVFPKALINK 300 nM, flow cytometry

Sequence: ALQRREVYK [ALQRREVYK]
- shift in the fluorescence (flow cytometry) (HLA-A^*11:01 [1]): leftward shift in the fluorescence intensity
- shift in the fluorescence (flow cytometry) (HLA-A^*11:01 [1]; listed as mutated peptide): leftward shift in the fluorescence peak
- pIC50 (HLA-A^*11:01 [1]; bracketed from 5 and 15 μM inhibition): 4.82 to 5.30
- 5 μM Inhibition (%) (HLA-A^*11:01 [1]; [3]): 44.83%
- 15 μM Inhibition (%) (HLA-A^*11:01 [1]; competitor 15 μM, FITC-labeled reference peptide KVFPKALINK 300 nM, flow cytometry): 77.55%

Sequence: ELQRREVYK [peptide originating from the E6 oncoprotein of HPV type 52]
- shift in the fluorescence (flow cytometry) (HLA-A^*11:01 [1]): does not exhibit a discernible shift; also recorded: no discernible shift
- 5 μM Inhibition (%) (HLA-A^*11:01 [1]; [3]): 24.21%
- HLA restriction (HLA-A^*11:01 [2]): HLA-A^*11:01-restricted
- T-cell response (T-cell responses): does not elicit positive T-cell responses
